Data: US4518790A, “15-Deoxy-16-hydroxy-16-vinyl and cyclopropyl substituted prostanoic acids and congeners” (American Cyanamid Company, priority 1980, dated 1985)

Key:
Type in all cases: in vivo, guinea pigs
[1] = system: bronchospasms elicited by acetylcholine; experiment: Bronchodilator activity (Konzett assay) against bronchospasm elicited by intravenous acetylcholine; settings: Cavia porcellus, guinea pig, three logarithmic cumulative doses, spasmogen acetylcholine i.v., read-out: Bronchodilator Activity (Konzett Assays) ED50, Spasmogenic Agent Acetylcholine
Method: (§1) The compounds of this invention are useful as bronchodilators for the treatment of asthma and chronic bronchitis. Bronchodilator activity is determined in guinea pigs against bronchospasms elicited by intravenous injections of 5-hydroxytryptamine, histamine or acetylcholine by the Konzett procedure. [See J. Lulling, P. Lievens, F. El Sayed and J. Prignot, Arzneimittel-Forschung, 18, 955 (1968).]
(§2) In Table 16 which follows bronchodilator activity for representative compounds of this invention against one or more of three spasmogenic agents is expressed as an ED50 determined from the results obtained with three logarithmic cummulative intravenous doses. In this assay, these compounds of this invention provide an effect of longer duration than does natural 1-PGE1 or 1-PGE2.

[2] = system: bronchospasms elicited by histamine; experiment: Bronchodilator activity (Konzett assay) against bronchospasm elicited by intravenous histamine; settings: Cavia porcellus, guinea pig, three logarithmic cumulative doses, spasmogen histamine i.v., read-out: Bronchodilator Activity (Konzett Assays) ED50, Spasmogenic Agent histamine
Method: as §1, §2

[3] = system: bronchospasms elicited by 5-hydroxytryptamine; experiment: Bronchodilator activity (Konzett assay) against bronchospasm elicited by intravenous 5-hydroxytryptamine; settings: Cavia porcellus, guinea pig, three logarithmic cumulative doses, spasmogen 5-hydroxytryptamine i.v., read-out: Bronchodilator Activity (Konzett Assays) ED50, Spasmogenic Agent 5-hydroxytryptamine
Method: as §1, §2

Row | SMILES | ED50 [1] [µg/kg] | ED50 [2] [µg/kg] | ED50 [3] [µg/kg]
1 | C=CC(O)(C/C=C/[C@H]1[C@H](O)CC(=O)[C@@H]1C/C=C\CCCC(=O)O)CCCC (relative stereo) [9-oxo-11α,16-dihydroxy-16-vinyl-5-cis,13-trans-prostadienoic acid] | 0.78 | 0.162 | 0.252
2 | C=CC(O)(C/C=C/[C@H]1[C@H](O)CC(=O)[C@@H]1CCCCCCC(=O)O)CCCC (relative stereo) [9-Oxo-11α,16-dihydroxy-16-vinyl-13-trans-prostenoic Acid] | 760 | 1.11 | 1.86
3 | C=CC(O)(C/C=C/[C@H]1[C@H](O)CC(=O)[C@@H]1C/C=C\CCCC(=O)OC)CCCC (relative stereo) [methyl-9-oxo-11α, 16-dihydroxy-16-vinyl-5-cis, 13-trans prostadienoate] | 0.302 | 0.212 | 0.354
4 | C=CC(O)(C/C=C/[C@H]1[C@H](O)CC(=O)[C@@H]1C/C=C\CCCC(=O)O)CCCCC (relative stereo) [9-oxo-11α,16-dihydroxy-16-vinyl-20-methyl-5-cis,13-trans-prostadienoic acid] | 4.3 | 2.3 | 2.06
